Results as given in patent US4740233A, “Substituted 1,2,4-triazolo[1,5-a]-pyrimidine-2-sulfonamides and compositions and methods of controlling undesired vegetation and suppressing the nitrification of ammonium nitrogen in soil” (The Dow Chemical Company, priority 1986, dated 1988).

How the values were obtained:
annual morning glory [1] = assay: Postemergent control of plant species; format: in vivo, Ipomoea spp.; conditions: Ipomoea, post-emergence, 336 h, read-out: percent postemergent control
Summary of the method: (§1)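 Each compound is dissolved in acetone, mixed with an equal volume of 0.1% surfactant water, and sprayed on plants grown to 2-4 leaves in nutrient soil. Treated and untreated beds sit under identical greenhouse temperature and light for roughly two weeks before growth reduction is rated.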

johnson grass [2] = assay: Postemergent control of plant species; format: in vivo, Sorghum halepense; conditions: Sorghum halepense, post-emergence, 336 h, read-out: percent postemergent control
Summary of the method: as §1

rice [3] = assay: Preemergent control of plant species; format: in vivo, Oryza sativa; conditions: Oryza sativa, pre-emergence, 336 h; 0.25 lb/acre; read-out: percent preemergent control
Summary of the method: (§2)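 Preemergent application of aqueous emulsions at rates given in the table, uniformly over seeded greenhouse soil. Untreated (water) beds as comparison; rating after 2 weeks as reduction in growth.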

barnyardgrass [4] = assay: Postemergent control of plant species; format: in vivo, Echinochloa crusgalli; conditions: Echinochloa crus-galli, post-emergence, 336 h, read-out: percent postemergent control
Summary of the method: as §1

rice [5] = assay: Postemergent control of plant species; format: in vivo, Oryza sativa; conditions: Oryza sativa, post-emergence, 336 h, read-out: percent postemergent control
Summary of the method: as §1

jimsonweed = assay: Preemergent control of plant species; format: in vivo, Datura stramonium; conditions: Datura stramonium, pre-emergence, 336 h; 0.25 lb/acre; read-out: percent preemergent control
Summary of the method: as §2

pigweed [6] = assay: Preemergent control of plant species; format: in vivo, Amaranthus spp.; conditions: Amaranthus retroflexus, pre-emergence, 336 h; 0.25 lb/acre; read-out: percent preemergent control
Summary of the method: as §2

yellow nutsedge [7] = assay: Postemergent control of plant species; format: in vivo, Cyperus esculentus; conditions: Cyperus, post-emergence, 336 h, read-out: percent postemergent control
Summary of the method: as §1

sugar beet = assay: Postemergent control of plant species; format: in vivo, Beta saccharifera; conditions: Beta vulgaris, post-emergence, 336 h, read-out: percent postemergent control
Summary of the method: as §1

yellow nutsedge [8] = assay: Preemergent control of plant species; format: in vivo, Cyperus esculentus; conditions: Cyperus, pre-emergence, 336 h; 0.25 lb/acre; read-out: percent preemergent control
Summary of the method: as §2

cocklebur = assay: Postemergent control of plant species; format: in vivo, Xanthium spp.; conditions: Xanthium strumarium, post-emergence, 336 h, read-out: percent postemergent control
Summary of the method: as §1

corn = assay: Preemergent control of plant species; format: in vivo, Zea mays; conditions: Zea mays, pre-emergence, 336 h; 0.25 lb/acre; read-out: percent preemergent control
Summary of the method: as §2

yellow foxtail [9] = assay: Postemergent control of plant species; format: in vivo, Setaria lutescens; conditions: Setaria, post-emergence, 336 h, read-out: percent postemergent control
Summary of the method: as §1

wheat = assay: Preemergent control of plant species; format: in vivo, Triticum aestivum; conditions: Triticum aestivum, pre-emergence, 336 h; 0.25 lb/acre; read-out: percent preemergent control
Summary of the method: as §2

barnyardgrass [10] = assay: Preemergent control of plant species; format: in vivo, Echinochloa crusgalli; conditions: Echinochloa crus-galli, pre-emergence, 336 h; 0.25 lb/acre; read-out: percent preemergent control
Summary of the method: as §2

pigweed [11] = assay: Postemergent control of plant species; format: in vivo, Amaranthus spp.; conditions: Amaranthus retroflexus, post-emergence, 336 h, read-out: percent postemergent control
Summary of the method: as §1

annual morning glory [12] = assay: Preemergent control of plant species; format: in vivo, Ipomoea spp.; conditions: Ipomoea, pre-emergence, 336 h; 0.25 lb/acre; read-out: percent preemergent control
Summary of the method: as §2

wild oats = assay: Postemergent control of plant species; format: in vivo, Avena fatua; conditions: Avena fatua, post-emergence, 336 h, read-out: percent postemergent control
Summary of the method: as §1

johnson grass [13] = assay: Preemergent control of plant species; format: in vivo, Sorghum halepense; conditions: Sorghum halepense, pre-emergence, 336 h; 0.25 lb/acre; read-out: percent preemergent control
Summary of the method: as §2

rape [14] = assay: Preemergent control of plant species; format: in vivo, Brassica napus; conditions: Brassica napus, pre-emergence, 336 h; 0.25 lb/acre; read-out: percent preemergent control
Summary of the method: as §2

yellow foxtail [15] = assay: Preemergent control of plant species; format: in vivo, Setaria lutescens; conditions: Setaria, pre-emergence, 336 h; 0.25 lb/acre; read-out: percent preemergent control
Summary of the method: as §2

velvetleaf = assay: Postemergent control of plant species; format: in vivo, Abutilon theophrasti; conditions: Abutilon theophrasti, post-emergence, 336 h, read-out: percent postemergent control
Summary of the method: as §1

crabgrass [16] = assay: Postemergent control of plant species; format: in vivo, Digitaria spp.; conditions: Digitaria sanguinalis, post-emergence, 336 h, read-out: percent postemergent control
Summary of the method: as §1

rape [17] = assay: Postemergent control of plant species; format: in vivo, Brassica napus; conditions: Brassica napus, post-emergence, 336 h, read-out: percent postemergent control
Summary of the method: as §1

crabgrass [18] = assay: Preemergent control of plant species; format: in vivo, Digitaria spp.; conditions: Digitaria sanguinalis, pre-emergence, 336 h; 0.25 lb/acre; read-out: percent preemergent control
Summary of the method: as §2

soybean = assay: Preemergent control of plant species; format: in vivo, Glycine max.; conditions: Glycine max, pre-emergence, 336 h; 0.25 lb/acre; read-out: percent preemergent control
Summary of the method: as §2

sorghum = assay: Postemergent control of plant species; format: in vivo, Sorghum vulgare; conditions: Sorghum, post-emergence, 336 h, read-out: percent postemergent control
Summary of the method: as §1

cotton = assay: Preemergent control of plant species; format: in vivo, Gossypium spp.; conditions: Gossypium hirsutum, pre-emergence, 336 h; 0.25 lb/acre; read-out: percent preemergent control
Summary of the method: as §2

SMILES | pest or weed control at 500 ppm (annual morning glory [1]) [%] | pest or weed control at 500 ppm (johnson grass [2]) [%] | plant injury at 280.212 g/ha (rice [3]) [%] | pest or weed control at 500 ppm (barnyardgrass [4]) [%] | plant injury at 500 ppm (rice [5]) [%] | pest or weed control at 280.212 g/ha (jimsonweed) [%] | pest or weed control at 280.212 g/ha (pigweed [6]) [%] | pest or weed control at 500 ppm (yellow nutsedge [7]) [%] | plant injury at 500 ppm (sugar beet) [%] | pest or weed control at 280.212 g/ha (yellow nutsedge [8]) [%] | pest or weed control at 500 ppm (cocklebur) [%] | plant injury at 280.212 g/ha (corn) [%] | pest or weed control at 500 ppm (yellow foxtail [9]) [%] | plant injury at 280.212 g/ha (wheat) [%] | pest or weed control at 280.212 g/ha (barnyardgrass [10]) [%] | pest or weed control at 500 ppm (pigweed [11]) [%] | pest or weed control at 280.212 g/ha (annual morning glory [12]) [%] | pest or weed control at 500 ppm (wild oats) [%] | pest or weed control at 280.212 g/ha (johnson grass [13]) [%] | plant injury at 280.212 g/ha (rape [14]) [%] | further results
Cc1cc(C)n2nc(S(=O)(=O)Nc3ccccc3F)nc2n1 [Compound 8] | 70 | 90 | 90 | 70 | 40 | 100 | 95 | 60 | 95 | 75 | 90 | 80 | 25 | 0 | 75 | 50 | 25 | 0 | 80 | 100 | pest or weed control at 280.212 g/ha (yellow foxtail [15]): 60%; pest or weed control at 500 ppm (velvetleaf): 75%; pest or weed control at 500 ppm (crabgrass [16]): 10%; plant injury at 500 ppm (rape [17]): 90%; pest or weed control at 280.212 g/ha (crabgrass [18]): 70%; plant injury at 280.212 g/ha (soybean): 95%; plant injury at 500 ppm (sorghum): 70%; plant injury at 280.212 g/ha (cotton): 90%
COC(=O)c1cccc(F)c1NS(=O)(=O)c1nc2nc(C)cc(C)n2n1 [Compound 26] | 90 | 100 | 100 | 100 | 80 | 100 | 100 | 90 | 100 | 100 | 100 | 100 | 90 | 0 | 98 | 100 | 95 | 0 | 98 | 98 | pest or weed control at 280.212 g/ha (yellow foxtail [15]): 100%; pest or weed control at 500 ppm (velvetleaf): 100%; pest or weed control at 500 ppm (crabgrass [16]): 90%; plant injury at 500 ppm (rape [17]): 100%; pest or weed control at 280.212 g/ha (crabgrass [18]): 100%; plant injury at 280.212 g/ha (soybean): 98%; plant injury at 500 ppm (sorghum): 90%; plant injury at 280.212 g/ha (cotton): 95%
Cc1cc(C)n2nc(S(=O)(=O)Nc3ccc(Cl)cc3C(F)(F)F)nc2n1 [Compound 34] | 75 | 20 | 40 | 0 | 0 | 0 | 50 | 60 | 100 | 70 | 100 | 0 | 0 | 0 | 20 | 100 | 20 | 0 | 80 | 95 | pest or weed control at 280.212 g/ha (yellow foxtail [15]): 0%; pest or weed control at 500 ppm (velvetleaf): 100%; pest or weed control at 500 ppm (crabgrass [16]): 0%; plant injury at 500 ppm (rape [17]): 100%; pest or weed control at 280.212 g/ha (crabgrass [18]): 0%; plant injury at 280.212 g/ha (soybean): 80%; plant injury at 500 ppm (sorghum): 60%; plant injury at 280.212 g/ha (cotton): 80%
